Measurements published in paper PMC6753678, “Fueling Open Innovation for Malaria Transmission-Blocking Drugs: Hundreds of Molecules Targeting Early Parasite Mosquito Stages” (Frontiers in Microbiology, 2019).
Read-outs that look alike come from different tables or passages of the source.

Key:
HepG2 cells [1] = test: HepG2 cytotoxicity assay
Summary of the method: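 HepG2 cells, 2,500 per well in MEM with 10% FBS and 1% NEAA, exposed to compounds for 48 h at 37°C, 5% CO2. Viability read by fluorescence; percent inhibition relative to 50 μM doxorubicin and DMSO controls.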

[2] = tested on: P. falciparum late stage (stages IV-V) gametocytes; parameters: method as in Almela et al 2016; conditions: ref Almela et al 2016, read-out: Pf GCT ATP IC50, cited from earlier work
[3] = tested on: P. falciparum female gametocytes; parameters: method as in Miguel-Blanco et al 2017; conditions: ref Miguel-Blanco et al 2017, read-out: Pf FGAA IC50, cited from earlier work
HepG2 cells [4] = conditions: cited from earlier work
[5] = tested on: P. falciparum female gametocytes; test: P. falciparum female gametogenesis assay (Pf FGAA); conditions: 1: YES; 0: NO
[6] = tested on: P. falciparum late stage (stages IV-V) gametocytes; test: P. falciparum late stage gametocyte ATP depletion assay (Pf GC-ATP); conditions: 1: YES; 0: NO
[7] = HepG2 cytotoxicity unified across the three screens
[8] = value reported with the Pf FGAA screen, ref Miguel-Blanco et al 2017
[9] = value reported with the Pf GCT ATP screen, ref Almela et al 2016
[10] = HepG2 values of the three screens unified

Row | Structure (SMILES) | Unified cytotox (HepG2 cells [1]; [7]) [µM] | IC50 ([2]; TCAMS screen comparison) [nM] | IC50 ([3]; TCAMS screen comparison) [nM] | HepG2 cytoxicity (HepG2 cells [4]; [8]) [µM] | HepG2 cytoxicity (HepG2 cells [4]; [9]) [µM] | Is compound selective in assay? Pf FGAA active? [5] | Is compound selective in assay? Pf GC-ATP active? [6] | Unified cytotox (HepG2 cells [1]; [10]) [µM] | IC50 [2] [nM] | IC50 [3] [nM] | HepG2 cytoxicity (Pf GCT ATP screen) (HepG2 cells [4]; ref Almela et al 2016) [µM] | HepG2 cytoxicity (Pf FGAA screen) (HepG2 cells [4]; ref Miguel-Blanco et al 2017) [µM]
1 | Cl.c1ccc2c(Nc3ccc(Cc4ccc(Nc5c6ccccc6nc6ccccc56)cc4)cc3)c3ccccc3nc2c1 [TCMDC-137354] | 4.17 | 2300 | 1040 | 3.85 | 4.49 | 0 (0: NO) | 0 (0: NO) |  |  |  |  | 
2 | Br.C/C=C/C=C/C1=NCCc2cc(OCCC)ccc21 [TCMDC-137442] | 18.64 | 750 | 1300 | 18.29 | 19 | 1 (1: YES) | 1 (1: YES) |  |  |  |  | 
3 | Cl.N=C(NCCCCC1CCCCC1)c1cccc(C(=N)NCCCCC2CCCCC2)n1 [TCMDC-137452] | 1.71 | 220 | 1050 | 1.82 | 1.6 | 0 (0: NO) | 0 (0: NO) |  |  |  |  | 
4 | CC(CNC(=N)c1cccc(C(=N)NCC(C)Oc2cccc(C3CCCCC3)c2)n1)Oc1cccc(C2CCCCC2)c1.Cl (stereo not drawn) [TCMDC-137455] | 2.85 | 240 | 1270 | 2.16 | 3.53 | 0 (0: NO) | 1 (1: YES) |  |  |  |  | 
5 | N=C(NCC1CC1c1ccccc1)c1cccc(C(=N)NCC2CC2c2ccccc2)n1 (stereo not drawn) [TCMDC-137456] | 6.50 | 450 | 1890 | 6.21 | 6.8 | 0 (0: NO) | 1 (1: YES) |  |  |  |  | 
6 | COc1ccc(CNCCCCCCNCc2ccc(OC)c3ccccc23)c2ccccc12.Cl [TCMDC-137631] | 2.44 | 510 | 720 | 1.82 | 3.06 | 0 (0: NO) | 0 (0: NO) |  |  |  |  | 
7 | CN1CCN(CCNc2c3ccccc3nc3c2ccc2ccccc23)CC1.Cl [TCMDC-137723] | 5.84 | 390 | 3490 | 5.07 | 6.6 | 0 (0: NO) | 1 (1: YES) |  |  |  |  | 
8 | COc1ccc2nc(-c3ccccc3)cc(NCCCNc3cc(-c4ccccc4)nc4ccc(OC)cc34)c2c1.Cl [TCMDC-137734] | 38.15 | 1210 | 5600 | 70.79 | 5.5 | 0 (0: NO) | 1 (1: YES) |  |  |  |  | 
9 | Cl.c1ccc2c(NCCCCCCCCCNc3ccnc4ccccc34)ccnc2c1 [TCMDC-137750] | 2.20 | 1030 | 850 | 1.50 | 2.9 | 0 (0: NO) | 0 (0: NO) |  |  |  |  | 
10 | Cl.c1ccc2c(NCCCCCCCCNc3ccnc4ccccc34)ccnc2c1 [TCMDC-137751] | 2.44 | 1080 | 1020 | 1.15 | 3.74 | 0 (0: NO) | 0 (0: NO) |  |  |  |  | 
11 | CS(=O)(=O)O.CSc1ccc2ccccc2c1CCNCCCCNCCc1c(SC)ccc2ccccc12 [TCMDC-137763] | 1.73 | 230 | 1010 | 1.82 | 1.65 | 0 (0: NO) | 0 (0: NO) |  |  |  |  | 
12 | CC1CCCCN1CCCNc1nc(NCc2ccccc2)c2ccccc2n1 (stereo not drawn) [TCMDC-137771] | 17.35 | 140 | 7250 | 14.62 | 20.07 | 0 (0: NO) | 1 (1: YES) |  |  |  |  | 
13 | COc1cc2ccccc2c(CNCCCCCCNCc2c(OC)c(OC)cc3ccccc23)c1OC.CS(=O)(=O)O [TCMDC-137795] | 4.66 | 1050 | 670 | 4.62 | 4.7 | 0 (0: NO) | 0 (0: NO) |  |  |  |  | 
14 | COc1ccc2ccc(OC)c(CNCCCCCCNCc3c(OC)ccc4ccc(OC)cc34)c2c1.CS(=O)(=O)O [TCMDC-137796] | 3.36 | 290 | 1210 | 3.31 | 3.4 | 0 (0: NO) | 1 (1: YES) |  |  |  |  | 
15 | COc1ccc2cc(CNCCCCCCNCc3ccc4cc(OC)ccc4c3)ccc2c1.CS(=O)(=O)O [TCMDC-137797] | 2.27 | 670 | 590 | 1.55 | 3 | 0 (0: NO) | 0 (0: NO) |  |  |  |  | 
16 | c1cc(C2=N[C@H]3CCCC[C@@H]3N2)ccc1OCCCOc1ccc(C2=N[C@@H]3CCCC[C@H]3N2)cc1 [TCMDC-137803] | 38.02 | 470 | 11500 | 38.02 | >25 | 0 (0: NO) | 1 (1: YES) |  |  |  |  | 
17 | CS(=O)(=O)O.FC(F)(F)COc1ccc2ccccc2c1CNCCCCCCNCc1c(OCC(F)(F)F)ccc2ccccc12 [TCMDC-137816] | 2.44 | 370 | 1090 | 1.84 | 3.04 | 0 (0: NO) | 0 (0: NO) |  |  |  |  | 
18 | COc1c(OC)c(OC)c2ccccc2c1CNCCCCCCNCc1c(OC)c(OC)c(OC)c2ccccc12.Cl [TCMDC-137827] | 3.08 | 1150 | 1670 | 2.95 | 3.2 | 0 (0: NO) | 0 (0: NO) |  |  |  |  | 
19 | C#CCCOc1ccc2ccccc2c1CNCCCCCCNCc1c(OCCC#C)ccc2ccccc12 [TCMDC-137832] | 5.14 | 410 | 920 | 4.79 | 5.5 | 0 (0: NO) | 1 (1: YES) |  |  |  |  | 
20 | C#CCOc1ccc2ccccc2c1CNCCCCCCNCc1c(OCC#C)ccc2ccccc12.CS(=O)(=O)O [TCMDC-137838] | 3.05 | 500 | 1050 | 2.92 | 3.19 | 0 (0: NO) | 0 (0: NO) |  |  |  |  | 
21 | COc1cc2ccccc2c(OC)c1CCNCCCCNCCc1c(OC)cc2ccccc2c1OC.CS(=O)(=O)O [TCMDC-137842] |  |  |  |  |  | 0 (0: NO) | 1 (1: YES) | 3.68 | 310 | 1240 | 3.2 | 4.17
22 | CCCCOc1cc(OC)c2ccccc2c1CCNCCCCNCCc1c(OCCCC)cc(OC)c2ccccc12.CS(=O)(=O)O [TCMDC-137845] |  |  |  |  |  | 0 (0: NO) | 0 (0: NO) | 2.49 | 500 | 760 | 3 | 1.97
23 | CCCCOc1c(CCNCCCCNCCc2cc(OC)c3ccccc3c2OCCCC)cc(OC)c2ccccc12.CS(=O)(=O)O [TCMDC-137848] |  |  |  |  |  | 0 (0: NO) | 1 (1: YES) | 2.54 | 80 | 610 | 3.1 | 1.97
24 | CS(=O)(=O)O.FC(F)(F)COc1ccc(CNCCCCCCNCc2ccc(OCC(F)(F)F)c3ccccc23)c2ccccc12 [TCMDC-137853] | 2.73 | 55 | 630 | 2.46 | 3 | 0 (0: NO) | 1 (1: YES) |  |  |  |  | 
